{"source": "paper PMC11108860", "about": "(Heliyon, 2024)", "key": {"[1]": {"tested_on": "K562 cells", "assay": "Western blotting of proliferation- and apoptosis-related proteins in K562 cells", "type": "cell-based, human", "settings": "for cleaved caspase-3 after inhibitor treatment: Fig. 6B,D, similar to EGCG treatment"}, "[2]": {"biological_target": "T1, OR2AT4-6xHis protein (Homo sapiens, UniProt A6NND4)", "T1 sequence (A6NND4 1-320)": "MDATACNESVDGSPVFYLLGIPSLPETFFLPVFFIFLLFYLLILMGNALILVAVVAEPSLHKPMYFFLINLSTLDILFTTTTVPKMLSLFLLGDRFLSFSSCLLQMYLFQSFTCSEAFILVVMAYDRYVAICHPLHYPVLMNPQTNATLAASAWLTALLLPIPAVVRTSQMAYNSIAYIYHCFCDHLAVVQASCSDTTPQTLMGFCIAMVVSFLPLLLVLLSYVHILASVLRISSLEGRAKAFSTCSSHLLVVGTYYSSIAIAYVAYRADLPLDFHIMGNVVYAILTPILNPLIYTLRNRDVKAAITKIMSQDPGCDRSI", "assay": "SPR sensorgrams on immobilized OR2AT4-6xHis, concentration series", "type": "binding", "settings": "100 μM (Fig. 2A)"}, "[3]": {"biological_target": "T2, OR2AT4 (Homo sapiens, UniProt A6NND4)", "T2 sequence (A6NND4 1-320)": "T1 sequence (A6NND4 1-320)", "assay": "Calcium imaging", "type": "cell-based", "settings": "0 to 1 mM; OR2AT4-expressing cells"}, "[4]": {"tested_on": "K562 cells", "assay": "Calcium imaging", "type": "cell-based, human"}, "[5]": {"tested_on": "Molt-4 cells", "assay": "Calcium imaging", "type": "cell-based"}, "[6]": {"tested_on": "K562 cells", "assay": "Cell viability assay", "type": "cell-based, human", "settings": "for cell viability: K562; for IC50: Homo sapiens, read-out: IC50 (cell viability)"}, "[7]": {"tested_on": "Molt-4 cells", "assay": "Cell viability assay", "type": "cell-based", "settings": "24, 48, and 72 h"}, "[8]": {"tested_on": "K562 cells", "assay": "Apoptosis assay", "type": "cell-based, human", "settings": "for percentage of total apoptotic cells: 200 μM"}, "[9]": {"settings": "K562, EGCG 200 μM, 30 min after treatment"}, "[10]": {"settings": "OR2AT4 siRNA-transfected K562 cells, EGCG treatment"}}, "note": "Where two headings read alike, the source gives them in different places.", "data": [{"smiles": "C[S+]([O-])c1ccc(-c2nc(-c3ccncc3)c(-c3ccc(F)cc3)[nH]2)cc1", "note": "(stereo not drawn) [SB203580, reference compound]", "values": [{"measurement": "cleaved caspase-3 after inhibitor treatment", "setting": "[1]; K562", "value": "upregulation"}, {"measurement": "p-p38 MAPK", "setting": "[1]; K562, Fig. 6C", "value": "downregulation"}]}, {"smiles": "CC1=CCC(CCC(C)C(C)O)C1(C)C", "note": "(stereo not drawn) [Sandalore, reference compound]", "values": [{"measurement": "reactivity with OR2AT4 recombinant protein (SPR)", "setting": "[2]", "value": "confirming the reactivity"}, {"measurement": "intracellular calcium response, dose-response", "setting": "[3]", "value": "increased calcium response in a concentration-dependent manner"}, {"measurement": "intracellular calcium response in K562 cells", "setting": "[4]; 2 mM", "value": "increased intracellular Ca^2+ levels"}, {"measurement": "intracellular calcium response in Molt-4 cells", "setting": "[5]; 2 mM", "value": "no immediate calcium response"}, {"measurement": "cell viability", "setting": "[6]; Fig. S2", "value": "decreased cell viability in a concentration-dependent manner"}]}, {"smiles": "O=C(O[C@@H]1Cc2c(O)cc(O)cc2O[C@@H]1c1cc(O)c(O)c(O)c1)c1cc(O)c(O)c(O)c1", "note": "[EGCG, (−)-epigallocatechin gallate]", "values": [{"measurement": "intracellular calcium response, dose-response", "setting": "[3]", "value": "increased intracellular calcium levels in a concentration-dependent manner"}, {"measurement": "intracellular calcium response in K562 cells", "setting": "[4]; 0.2 mM", "value": "elevated the calcium response"}, {"measurement": "intracellular calcium response in Molt-4 cells", "setting": "[5]; 200 μM", "value": "no immediate calcium response"}, {"measurement": "IC50", "setting": "[6]; K562, 48 h", "value": 146, "unit": "µM"}, {"measurement": "IC50", "setting": "[6]; K562, 72 h", "value": 158, "unit": "µM"}, {"measurement": "cell viability", "setting": "[6]; 24, 48, and 72 h, 0-500 μM", "value": "decreased cell viability in a time- (24, 48, and 72 h) and concentration-dependent manner"}, {"measurement": "concentrations with sudden onset of cell death", "setting": "[7]", "value": "above 100 μM"}, {"measurement": "percentage of late apoptotic cells, time course", "setting": "[8]; 200 μM, 24, 48, and 72 h", "value": "increased the percentage of late apoptotic cells in a time-dependent manner"}, {"measurement": "percentage of total apoptotic cells", "setting": "[8]; 24 h", "value": 50, "unit": "%"}, {"measurement": "percentage of total apoptotic cells", "setting": "[8]; 48 h", "value": 58.03, "unit": "%"}, {"measurement": "percentage of total apoptotic cells", "setting": "[8]; 72 h", "value": 64.52, "unit": "%"}, {"measurement": "expression of Bax", "setting": "[1]; K562", "value": "no significant difference"}, {"measurement": "expression of Bcl-2", "setting": "[1]; K562", "value": "no significant difference"}, {"measurement": "levels of cleaved caspase-3, time course", "setting": "[1]; K562, 200 μM, 24 and 48 h", "value": "increased in a time-dependent manner"}, {"measurement": "protein level of phosphor-AKT", "setting": "[1]; [9]", "value": "downregulated"}, {"measurement": "protein level of phosphor-p38 MARK", "setting": "[1]; [9]", "value": "downregulated"}, {"measurement": "expression of phosphor-STAT5", "setting": "[1]; K562, EGCG 200 μM, starting from 15 min", "value": "began to decrease"}, {"measurement": "expression levels of cleaved caspase-8", "setting": "[1]; K562, time- and concentration-dependent", "value": "upregulated"}, {"measurement": "caspase-8 in OR2AT4 siRNA-transfected K562 cells", "setting": "[1]; [10]", "value": "significantly reduced"}, {"measurement": "cleaved caspase-3 in OR2AT4 siRNA-transfected K562 cells", "setting": "[1]; [10]", "value": "significantly reduced"}]}, {"smiles": "CCCCCCCCCCCCCCCCCCOP(=O)([O-])OC1CC[N+](C)(C)CC1", "note": "[Perifosine, reference compound]", "values": [{"measurement": "p-Akt", "setting": "[1]; K562, Fig. 6A", "value": "downregulation"}, {"measurement": "cleaved caspase-3 after inhibitor treatment", "setting": "[1]; K562", "value": "upregulation"}]}, {"smiles": "COc1cc2c3cc1Oc1c(OC)c(OC)cc4c1[C@@H](Cc1ccc(O)c(c1)Oc1ccc(cc1)C[C@@H]3N(C)CC2)N(C)CC4", "note": "[Berbamine]", "values": [{"measurement": "intracellular calcium response, dose-response", "setting": "[3]", "value": "increased intracellular calcium levels in a concentration-dependent manner"}]}]}
